For twelve compounds, melting point results are on record in patent US6838472B2, “Substituted urea retinoid agonists” (Syntex (U.S.A.) LLC, priority 2001, dated 2005).

Molecules are shown by their SMILES. Where “and” joins values, the source holds several entries; their conditions need not be identical. Identical values can stand only once.

The compound `CCOCCN(C(=O)Nc1ccc(C(=O)O)cc1)c1ccc2c(c1)C(C)(C)CCC2(C)C` [Compound 33, 4-[3-(2-ethoxy-ethyl)-3-(5,5,8,8-tetramethyl-5,6,7,8-tetrahydro-naphthalen-2-yl)-ureido]-benzoic acid] showed a melting point of 82 to 85 °C. As for `CCCCCN(C(=O)Nc1ccc(C(=O)O)cn1)c1ccc2c(c1)C(C)(C)CCC2(C)C` [Compound 49, 6-[3-pentyl-3-(5,5,8,8-tetramethyl-5,6,7,8-tetrahydro-naphthalen-2-yl) -ureido]-nicotinic acid], the figure is 175 to 179.5 °C; as for `CC1(C)CCC(C)(C)c2cc(N(CCCCO)C(=O)Nc3ccc(C(=O)O)cc3)ccc21` [Compound 71, 4-[3-(4-hydroxy-butyl)-3-(5,5,8,8-tetramethyl-5,6,7,8-tetrahydro-naphthalen-2-yl)-ureido]-benzoic acid], 124 to 125 °C; as for `CC1(C)CCC(C)(C)c2cc(N(CCc3ccccc3)C(=O)Nc3ccc(C(=O)O)cc3)ccc21` [Compound 5, 4-[3-phenethyl-3-(5,5,8,8-tetramethyl-5,6,7,8-tetrahydro-naphthalen-2-yl)-ureido]-benzoic acid], 223 to 225 °C and 223 to 224.9 °C.

In turn, `CCCCCN(C(=O)Nc1ccc2c(c1)C(C)(C)CCC2(C)C)c1ccc(C(=O)O)cc1` [Compound 42, 4-[1-pentyl-3-(5,5,8,8-tetramethyl-5,6,7,8-tetrahydro-naphthalen-2-yl)-ureido]-benzoic acid] had a melting point of 201 to 202 °C.

Regarding `Cc1cc(CN(C(=O)Nc2ccc(C(=O)O)cc2)c2ccc3c(c2)C(C)(C)CCC3(C)C)no1` [Compound 57, 4-[3-(5-methyl-isoxazol-3-ylmethyl)-3-(5,5,8,8-tetramethyl-5,6,7,8-tetrahydro-naphthalen-2-yl)-ureido]-benzoic acid], the melting point was 188 to 193 °C and 188.2 to 193 °C. As for `CC1(C)CCC(C)(C)c2cc(N(Cc3ccc(Cl)cc3)C(=O)Nc3ccc(C(=O)O)cc3)ccc21` [Compound 21, 4-[3-(4-chlorobenzyl)-3-(5,5,8,8-tetramethyl-5,6,7,8-tetrahydro-naphthalen-2-yl)-ureido]-benzoic acid], the figure is 126 to 133.1 °C and 126 to 133 °C; as for `CC1(C)CCC(C)(C)c2cc(N(CCCCOCc3ccccc3)C(=O)Nc3ccc(C(=O)O)cc3)ccc21` [Compound 41, 4-[3-(4-benzyloxy-butyl)-3-(5,5,8,8-tetramethyl-5,6,7,8-tetrahydro-naphthalen-2-yl)-ureido]-benzoic acid], 158 to 162 °C; as for `COc1ccc(CN(C(=O)Nc2ccc(C(=O)O)cc2)c2ccc3c(c2)C(C)(C)CCC3(C)C)cc1` [Compound 23, 4-[3-(4-methoxybenzyl)-3-(5,5,8,8-tetramethyl-5,6,7,8-tetrahydro-naphthalen-2-yl)-ureido]-benzoic acid], 117 to 121 °C and 116.8 to 120.8 °C. The same measure for `CC1(C)CCC(C)(C)c2cc(N(Cc3cccs3)C(=O)Nc3ccc(C(=O)O)cc3)ccc21` [Compound 31, 4-[3-(5,5,8,8-tetramethyl-5,6,7,8-tetrahydro-naphthalen-2yl)-3-thiophen-2-ylmethyl-ureido]-benzoic acid]: 167 to 170 °C and 167.1 to 170.1 °C; for `CC1(C)CCC(C)(C)c2cc(N(Cc3ccc(F)cc3)C(=O)Nc3ccc(C(=O)O)cc3)ccc21` [Compound 19, 4-[3-(4-fluorobenzyl)-3-(5,5,8,8-tetramethyl-5,6,7,8-tetrahydro-naphthalen-2-yl)-ureido]-benzoic acid]: 143 to 146 °C and 143.1 to 145.9 °C.

`CCN(C(=O)N(CC)c1ccc2c(c1)C(C)(C)CCC2(C)C)c1ccc(C(=O)O)cc1` [Compound 73, 4-[1,3-diethyl-3-(5,5,8,8-tetramethyl-5,6,7,8-tetrahydro-naphthalen-2-yl)-ureido]-benzoic acid] displayed a melting point of 169 to 172 °C.
